# In the RepoRT retention time repository (doi:10.1039/c4mb00346b):
# Test: HILIC, Merck SeQuant ZIC-pHILIC, 150 × 2.1 mm, 5 µm, 0.1 mL/min, estimated dead time 3.3 min; A: acetonitrile; B: water + 10 mM ammonium carbonate; gradient (min/%B) 0/20 30/80
# Conditions: stereoisomer not certain
row,Structure (SMILES),LC retention time
1,"OCC1OCC(O)C(O)C1O (stereo not given) [1,5-Anhydroglucitol]",9.2 min
2,Cn1cnc2c(ncn2C2OC(CO)C(O)C2O)c1=N (stereo not given) [1-Methyl-adenosine],11.1 min
3,Cn1c(N)nc2c(ncn2C2OC(CO)C(O)C2O)c1=O (stereo not given) [1-Methyl-guanosine],7.1 min
4,NC(CCCC(=O)O)C(=O)O (stereo not given) [2-Aminoadipate],12.2 min
5,O=C(O)CCC(=O)C(=O)O [2-Oxoglutarate],12.9 min
6,"Nc1ncnc2c1ncn2C1OC2COP(=O)(O)OC2C1O (stereo not given) [3',5'-cAMP]",7.1 min
7,Nc1ccc(C(=O)O)cc1 [4-Aminobenzoate],7.2 min
8,O=C(O)C(O)C(O)C(O)C(O)COP(=O)(O)O (stereo not given) [6-Phosphogluconate],15 min
9,Nc1ncnc2c1ncn2C1OC(COP(=O)(O)OP(=O)(O)O)C(O)C1O (stereo not given) [ADP],12.4 min
10,NC(=O)c1ncn(C2OC(COP(=O)(O)O)C(O)C2O)c1N (stereo not given) [AICAR],12.7 min
11,Nc1ncnc2c1ncn2C1OC(COP(=O)(O)O)C(O)C1O (stereo not given) [AMP],11.5 min
12,Nc1ncnc2c1ncn2C1OC(COP(=O)(O)OP(=O)(O)OP(=O)(O)O)C(O)C1O (stereo not given) [ATP],13.8 min
13,CC(=O)SCCNC(=O)CCNC(=O)C(O)C(C)(C)COP(=O)(O)OP(=O)(O)OCC1OC(n2cnc3c(N)ncnc32)C(O)C1OP(=O)(O)O (stereo not given) [Acetyl-CoA],10.5 min
14,CC(=O)OC(CC(=O)[O-])C[N+](C)(C)C (stereo not given) [Acetyl-carnitine],8.5 min
15,Nc1ncnc2nc[nH]c12 [Adenine],6.6 min
16,Nc1ncnc2c1ncn2C1OC(CO)C(O)C1O (stereo not given) [Adenosine],6.2 min
17,NC(N)=NCCCC(N)C(=O)O (stereo not given) [Arginine],24.8 min
18,NC(=NCCCC(N)C(=O)O)NC(CC(=O)O)C(=O)O (stereo not given) [Arginino-succinate],14.2 min
19,NC(=O)CC(N)C(=O)O (stereo not given) [Asparagine],12.4 min
20,NC(CC(=O)O)C(=O)O (stereo not given) [Aspartate],12.5 min
21,C[N+](C)(C)CC(=O)[O-] [Betaine],8.6 min
22,O=C(O)CCCCC1SCC2NC(=O)NC21 (stereo not given) [Biotin],6.2 min
23,C[N+](C)(C)CCCC(=O)O [Butyro-betaine],10.9 min
24,CCCC(=O)OC(CC(=O)[O-])C[N+](C)(C)C (stereo not given) [Butyryl-carnitine],6.2 min

row,Structure (SMILES),LC retention time
1,C[N+](C)(C)CCOP(=O)(O)OP(=O)([O-])OCC1OC(n2ccc(N)nc2=O)C(O)C1O (stereo not given) [CDP-choline],13 min
2,Nc1ccn(C2OC(COP(=O)(O)OP(=O)(O)O)C(O)C2O)c(=O)n1 (stereo not given) [CDP],14.7 min
3,Nc1ccn(C2OC(COP(=O)(O)O)C(O)C2O)c(=O)n1 (stereo not given) [CMP],13.2 min
4,Nc1ccn(C2OC(COP(=O)(O)OP(=O)(O)OP(=O)(O)O)C(O)C2O)c(=O)n1 (stereo not given) [CTP],15.5 min
5,C[N+](C)(C)CC(O)CC(=O)[O-] (stereo not given) [Carnitine],10.9 min
6,CC(O)(CC(=O)O)C(=O)O (stereo not given) [Citramalate],12.6 min
7,O=C(O)CC(O)(CC(=O)O)C(=O)O [Citrate],15.5 min
8,NC(=O)NCCCC(N)C(=O)O (stereo not given) [Citrulline],13 min
9,CC(C)(COP(=O)(O)OP(=O)(O)OCC1OC(n2cnc3c(N)ncnc32)C(O)C1OP(=O)(O)O)C(O)C(=O)NCCC(=O)NCCS (stereo not given) [CoA],11.7 min
10,CN(CC(=O)O)C(=N)N [Creatine],12.1 min
11,CN1CC(=O)NC1=N [Creatinine],6.9 min
12,Nc1ccn(C2OC(CO)C(O)C2O)c(=O)n1 (stereo not given) [Cytidine],9.1 min
13,CCCCCCCCCC(=O)OC(CC(=O)[O-])C[N+](C)(C)C (stereo not given) [Decanoyl-carnitine],4.2 min
14,CN(C)C(N)=NCCCC(N)C(=O)O (stereo not given) [Dimethyl-arginine],20 min
15,CN(C)c1nc2c(ncn2C2OC(CO)C(O)C2O)c(=O)[nH]1 (stereo not given) [Dimethyl-guanosine],6 min
16,C[NH+](C)C(Cc1cnc[nH]1)C(=O)[O-] (stereo not given) [Dimethyl-histidine],9.7 min
17,CN(C)CCCCC(N)C(=O)O (stereo not given) [Dimethyl-lysine],19.2 min
18,C[N+]1(C)CCCC1C(=O)[O-] (stereo not given) [Dimethyl-proline (stachydrine)],7.9 min
19,O=C(O)C(COP(=O)(O)O)OP(=O)(O)O (stereo not given) [Diphospho-glycerate],15.6 min
20,C[N+](C)(C)C(Cc1cnc([S-])[nH]1)C(=O)O (stereo not given) [Ergothioneine],12.1 min
21,Cc1cc2nc3c(=O)[nH]c(=O)nc-3n(CC(O)C(O)C(O)COP(=O)(O)OP(=O)(O)OCC3OC(n4cnc5c(N)ncnc54)C(O)C3O)c2cc1C (stereo not given) [FAD],9.4 min
22,"O=P(O)(O)OCC1OC(O)(COP(=O)(O)O)C(O)C1O (stereo not given) [Fructose-1,6-diphosphate]",15.5 min
23,O=P(O)(O)OCC1OC(O)(CO)C(O)C1O (stereo not given) [Fructose-6-phosphate],13.3 min
24,O=C(O)C=CC(=O)O [Fumarate],13.1 min

row,Structure (SMILES),LC retention time
1,Nc1nc2c(ncn2C2OC(COP(=O)(O)OP(=O)(O)OC3OC(CO)C(O)C(O)C3O)C(O)C2O)c(=O)[nH]1 (stereo not given) [GDP-glucose],15.5 min
2,Nc1nc2c(ncn2C2OC(COP(=O)(O)OP(=O)(O)O)C(O)C2O)c(=O)[nH]1 (stereo not given) [GDP],15.5 min
3,Nc1nc2c(ncn2C2OC(COP(=O)(O)O)C(O)C2O)c(=O)[nH]1 (stereo not given) [GMP],14.1 min
4,Nc1nc2c(ncn2C2OC(COP(=O)(O)OP(=O)(O)OP(=O)(O)O)C(O)C2O)c(=O)[nH]1 (stereo not given) [GTP],16.4 min
5,O=C(O)C(O)C(O)C(O)C(O)CO (stereo not given) [Gluconate],11.4 min
6,NC1C(O)OC(CO)C(O)C1O (stereo not given) [Glucosamine],11.6 min
7,O=P(O)(O)OCC1OC(O)C(O)C(O)C1O (stereo not given) [Glucose-6-phosphate],14.2 min
8,OCC1OC(O)C(O)C(O)C1O (stereo not given) [Glucose],12 min
9,COC(=O)C(N)CCC(=O)O (stereo not given) [Glutamate methyl ester],7.1 min
10,NC(CCC(=O)O)C(=O)O (stereo not given) [Glutamate],12.1 min
11,NC(=O)CCC(N)C(=O)O (stereo not given) [Glutamine],12.2 min
12,O=C(O)CCCC(=O)O [Glutarate],12 min
13,NC(CCC(=O)NC(CSSCC(NC(=O)CCC(N)C(=O)O)C(=O)NCC(=O)O)C(=O)NCC(=O)O)C(=O)O (stereo not given) [Glutathione disulfide (GSSG)],15 min
14,O=CC(O)COP(=O)(O)O (stereo not given) [Glyceraldehyde-3-phosphate],13.2 min
15,O=C(O)C(O)CO (stereo not given) [Glyceric acid],10.1 min
16,O=P(O)(O)OC(CO)CO [Glycerol-2-phosphate],12.2 min
17,C[N+](C)(C)CCOP(=O)([O-])OCC(O)CO (stereo not given) [Glycerophosphocholine],12.1 min
18,Nc1nc2c(ncn2C2OC(CO)C(O)C2O)c(=O)[nH]1 (stereo not given) [Guanosine],9.8 min
19,CC(O)(CC(=O)O)CC(=O)SCCNC(=O)CCNC(=O)C(O)C(C)(C)COP(=O)(O)OP(=O)(O)OCC1OC(n2cnc3c(N)ncnc32)C(O)C1OP(=O)(O)O (stereo not given) [HMG-CoA],13.2 min
20,CCCCCC(=O)OC(CC(=O)[O-])C[N+](C)(C)C (stereo not given) [Hexanoyl-carnitine],4.8 min
21,O=C(O)CNC(=O)c1ccccc1 [Hippurate],4.4 min
22,NCCc1cnc[nH]1 [Histamine],24.8 min
23,NC(Cc1cnc[nH]1)C(=O)O (stereo not given) [Histidine],12 min
24,NC(CO)Cc1cnc[nH]1 (stereo not given) [Histidinol],16.3 min

row,Structure (SMILES),LC retention time
1,O=c1[nH]cnc2nc[nH]c12 [Hypoxanthine],7.6 min
2,O=S(=O)(O)Oc1c[nH]c2ccccc12 [Indoxyl-sulfate],4.9 min
3,O=c1[nH]cnc2c1ncn2C1OC(CO)C(O)C1O (stereo not given) [Inosine],8.2 min
4,CCC(C)C(N)C(=O)O (stereo not given) [Isoleucine],8.6 min
5,CC(C)CC(=O)OC(CC(=O)[O-])C[N+](C)(C)C (stereo not given) [Isovaleryl-carnitine],5.4 min
6,Nc1ccccc1C(=O)CC(N)C(=O)O (stereo not given) [Kynurenine],8 min
7,CC(C)CC(N)C(=O)O (stereo not given) [Leucine],7.6 min
8,NCCCCC(N)C(=O)O (stereo not given) [Lysine],23.3 min
9,O=C(O)CC(O)C(=O)O (stereo not given) [Malate],13.3 min
10,CSCCC(N)C(=O)O (stereo not given) [Methionine],8.7 min
11,Cn1cnc(CC(N)C(=O)O)c1 (stereo not given) [Methyl-histidine],10.2 min
12,CNCCCCC(N)C(=O)O (stereo not given) [Methyl-lysine],22.1 min
13,CC(=O)NC(CCCC[NH3+])C(=O)[O-] (stereo not given) [N2-Acetyl-lysine],12.7 min
14,CC(=O)NCCCCC([NH3+])C(=O)[O-] (stereo not given) [N6-Acetyl-lysine],10.5 min
15,CCC(C)C(NC(C)=O)C(=O)O (stereo not given) [N-Acetyl-(iso)leucine],4.4 min
16,CC(=O)N[C@H]1C(O)O[C@H](CO)[C@@H](O)[C@@H]1O (stereo partly drawn) [N-Acetyl-D-glucosamine],9.3 min
17,CC(=O)NC(CCC[NH+]=C(N)N)C(=O)[O-] (stereo not given) [N-Acetyl-arginine],12.3 min
18,CC(=O)NC(CC(=O)O)C(=O)O (stereo not given) [N-Acetyl-aspartate],12.5 min
19,CC(=O)NC(CCC(=O)O)C(=O)O (stereo not given) [N-Acetyl-glutamate],11.6 min
20,CC(=O)NC(CCCN)C(=O)O (stereo not given) [N-Acetyl-ornithine],11.1 min
21,NC(=O)c1ccc[n+](C2OC(COP(=O)(O)OP(=O)(O)OCC3OC(n4cnc5c(N)ncnc54)C(O)C3O)C(O)C2O)c1 (stereo not given) [NAD+],11.9 min
22,NC(=O)C1=CN(C2OC(COP(=O)(O)OP(=O)(O)OCC3OC(n4cnc5c(N)ncnc54)C(O)C3O)C(O)C2O)C=CC1 (stereo not given) [NADH],11.1 min
23,NC(=O)c1ccc[n+](C2OC(COP(=O)(O)OP(=O)(O)OCC3OC(n4cnc5c(N)ncnc54)C(OP(=O)(O)O)C3O)C(O)C2O)c1 (stereo not given) [NADP+],14.4 min
